Test [1] concerns the target T1, adenosine A2a receptor (Human) (Homo sapiens, UniProt P29274).
T1 construct: host or cells: HEK293
The test is described as follows: c-AMP generating action in cell expressing adenosine A2a receptor. The following applies: HEK293 cell expressing human A2a; 100% = c-AMP caused by 1 μM CGS-21680; read-out: A2a Agonistic Action (EC50). Type of test: cell-based. As for the experimental part: (1) c-AMP Generating Action in Cell Expressing Adenosine A2a Receptor
The test was carried out as mentioned below with reference to the method disclosed in the reference (Klotz k. N. et al., Naunyn-Schmiedeberg's Arch. Pharmacol., (1998) 357, 1-9; Shryock J. C. et al., Molecular Pharmacology, (1998) 53, 886-893).
As to the cell, HEK293 cell expressing adenosine A2a receptor (Human) (PerkinElmer Life Sciences, Code No. RBHA2AC) was used.
As to the culture medium, Dulbecco's modified Eagles medium (DMEM) including 10% FBS (Fetal bovine serum) and 1 mM of sodium pyruvate was used.
The cell was placed on 96 well plate (1×10^5/well), and cultured overnight. After removing off the supernatant, to each well, 0.1 ml of DMEM (without FBS) containing 20 mM HEPES, 0.1 mM of IBMX (3-isobutyl-1-methylxanthine) and 2 unit/mL adenosine deaminase was added, and they were incubated at 37° C. for 30 minutes. To each well, 0.1 ml of the culture medium including the DMSO solution of the test compound in an appropriate concentration was added and they were incubated for additional 30 minutes. After removing off the supernatant, the cytolytic solution was added to quench the reaction. The amount of c-AMP in each well was measured by using the c-AMP enzyme immunoassay (EIA) system (Amersham Biosciences, Code No. RPN225).
The same assay was repeated using CGS-21680 (2-p-carboxyethyl)phenethylamino-5′-N-ethylcarboxamidoadenosine hydrochloride, (Sigma, code C141) as reference compound. The amount of resultant c-AMP in the medium, caused by 1 μM of reference compound, was defined to be 100%. A concentration of assayed compound in the medium, producing 50% c-AMP amounts, was calculated to be EC50 value.

Test [2] deals with Intraocular Pressure in Rabbit. The test is described as follows: Measuring test for intraocular pressure in rabbit. Type of test: in vivo, Female New Zealand white rabbits. The following applies: mean±standard error. As for the experimental part:
(3) Measuring Test for Intraocular Pressure in Rabbit
The test compounds were dissolved in 10 mM of phosphate buffer (pH 7.5) (hereinafter, referred to as “vehicle of ophthalmic preparation”), and they were instilled in a given concentration. In addition, the compounds insoluble in that concentration was used as a suspension. Female New Zealand white rabbits (KITAYAMA LABES Co., Ltd.) whose weights were 2.0-4.0 kg were used.
The measurement of the intraocular pressure was carried out using Pneumatonometer (Model 30 Classic, Mentor company) without anesthesia. In addition, before the measurement of the intraocular pressure, the surface anesthesia with 0.4% oxybuprocaine hydrochloride (“Benoxil” 0.4% ophthalmic solution, Santen Pharmaceutical Co., Ltd.) was carried out.
The animals whose intraocular pressure was stable before instillation were selected, and these animals were divided to every 4 animal in each one group, 50 μL of eye drops including each the test compound was administered to one-sided eye and vehicle was administered to contralateral eye as the control eye. The measurement of intraocular pressure was carried out before instillation and after 0.5, 1, 2, 3, 4 and 6 hours from instillation. The effect on the intraocular pressure was shown as the difference from pre-instillation (ΔIOP, mmHg, mean±standard error). The following Tables 14 and 15 show the results of Control Compounds A and B used as 1% suspensions which are the same as in the pharmacological test (1).
The animals were pretreated as mentioned above, and among them animals whose intraocular pressure was stable before instillation were selected, and these animals were divided to every 5 to 8 animal in each one group. Every two group was used for each of the test compounds. The test compound was administered unilaterally to the eye of the test group rabbit and the intraocular pressure was measured. The vehicle was administered unilaterally to the eye of the control group rabbit and the intraocular pressure was measured. As mentioned above, the measurement of intraocular pressure was carried out before instillation and after 0.5, 1, 2, 3, 4 and 6 hours from instillation, and the effect on the intraocular pressure was shown as the difference from pre-instillation (ΔIOP, mmHg, mean±standard error).

The mark [3] stands for this setting: 0.03% ophthalmic solution, rabbit, instillation, 0.5 hr after instillation, difference from pre-instillation.
Where [4] appears, read: 0.03% ophthalmic solution, rabbit, instillation, 1 hr after instillation, difference from pre-instillation.
Where [5] appears, read: 0.03% ophthalmic solution, rabbit, instillation, 2 hr after instillation, difference from pre-instillation.
[6] abbreviates: 0.03% ophthalmic solution, rabbit, instillation, 3 hr after instillation, difference from pre-instillation.
[7] abbreviates: 0.03% ophthalmic solution, rabbit, instillation, 4 hr after instillation, difference from pre-instillation.
[8] abbreviates: 0.03% ophthalmic solution, rabbit, instillation, 6 hr after instillation, difference from pre-instillation.

The structures appear in SMILES notation. Where a name gives a salt, the structure may show the parent alone.

T1 sequence (P29274 whole entry): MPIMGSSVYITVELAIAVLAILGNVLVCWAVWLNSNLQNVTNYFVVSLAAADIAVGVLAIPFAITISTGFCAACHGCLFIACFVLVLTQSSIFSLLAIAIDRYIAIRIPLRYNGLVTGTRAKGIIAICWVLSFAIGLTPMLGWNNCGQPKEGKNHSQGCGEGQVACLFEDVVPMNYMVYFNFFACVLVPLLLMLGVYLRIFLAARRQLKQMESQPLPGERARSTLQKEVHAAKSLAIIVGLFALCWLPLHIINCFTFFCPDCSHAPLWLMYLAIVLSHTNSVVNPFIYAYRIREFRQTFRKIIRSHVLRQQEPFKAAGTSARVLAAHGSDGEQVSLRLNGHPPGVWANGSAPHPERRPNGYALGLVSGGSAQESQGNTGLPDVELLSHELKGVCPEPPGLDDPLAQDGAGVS

For `CC(=O)Nc1ccc(-c2nc(SCc3cccc(C)n3)nc(N)c2C#N)cc1` [Example 2, N-{4-[6-amino-5-cyano-2-(6-methylpyridin-2-ylmethylsulfanyl)pyrimidin-4-yl]phenyl}acetamide], in test [1], the EC50 came out at 11.9 nM. The “ΔIOP (mmHg)” value in test [2] (1% suspended ophthalmic preparation, test group, 0.5 hr) is given as 1.1 ± 0.6 mmHg; in test [2] (1% suspended ophthalmic preparation, test group, 1 hr), −3.1 ± 0.6 mmHg; in test [2] (1% suspended ophthalmic preparation, test group, 2 hr), −4.2 ± 0.7 mmHg; in test [2] (1% suspended ophthalmic preparation, test group, 3 hr), −4.0 ± 0.9 mmHg; in test [2] (1% suspended ophthalmic preparation, test group, 4 hr) it was −2.0 ± 0.4 mmHg; in test [2] (1% suspended ophthalmic preparation, test group, 6 hr) it was 0.4 ± 0.9 mmHg.

In the case of `CC(=O)Nc1ccc(-c2nc(SCc3cccc(CN4CCOCC4)n3)nc(N)c2C#N)cc1` [Example 14, N-{4-[6-amino-5-cyano-2-(6-morpholin-4-ylmethylpyridin-2-ylmethylsulfanyl)pyrimidin-4-yl]phenyl}acetamide], the EC50 in test [1] is 39.6 nM. In addition, the “ΔIOP (mmHg)” value in test [2] (0.3% suspended ophthalmic preparation, test group, 0.5 hr) is reported as −0.3 ± 1.2 mmHg; in test [2] (0.3% suspended ophthalmic preparation, test group, 1 hr), −3.9 ± 1.3 mmHg; in test [2] (0.3% suspended ophthalmic preparation, test group, 2 hr), −4.4 ± 1.0 mmHg; in test [2] (0.3% suspended ophthalmic preparation, test group, 3 hr) it was −4.8 ± 1.4 mmHg; in test [2] (0.3% suspended ophthalmic preparation, test group, 4 hr), −4.3 ± 1.0 mmHg; in test [2] (0.3% suspended ophthalmic preparation, test group, 6 hr), −1.0 ± 1.0 mmHg.

Regarding `CN1CCN(C(=O)CCc2cccc(CSc3nc(N)c(C#N)c(-c4ccc(N)cc4)n3)n2)CC1` [Example 56, 4-amino-6-(4-aminophenyl)-2-{6-[3-(4-methylpiperazin-1-yl)-3-oxopropyl]-pyridin-2-ylmethylsulfanyl}pyrimidin-5-carbonitrile], the half-maximal effective concentration (EC50) in test [1] came out at 5.1 nM.

In the case of `CCC(=O)Nc1ccc(-c2nc(SCc3cccc(CCC(=O)N4CCN(C)CC4)n3)nc(N)c2C#N)cc1` [Example 57, N-[4-(6-amino-5-cyano-2-{6-[3-(4-methylpiperazin-1-yl)-3-oxopropyl]pyridin-2-ylmethylsulfanyl}pyrimidin-4-yl)phenyl]propionamide], the EC50 in test [1] amounted to 3.4 nM.

`CCCC(=O)Nc1ccc(-c2nc(SCc3cccc(CCC(=O)N4CCN(C)CC4)n3)nc(N)c2C#N)cc1` [Example 58, N-[4-(6-amino-5-cyano-2-{6-[3-(4-methylpiperazin-1-yl)-3-oxopropyl]pyridin-2-ylmethylsulfanyl}pyrimidin-4-yl)phenyl]-butylamide]: in test [1], the EC50 is 38 nM.

Consider `CC(=O)Nc1ccc(-c2nc(SCc3cccc(CCC(=O)NCCN)n3)nc(N)c2C#N)cc1` [Example 60, 3-{6-[4-(4-acetylaminophenyl)-6-amino-5-cyanopyrimidin-2-ylsulfanylmethyl]pyridin-2-yl}-N-(2-aminoethyl)propionamide hydrochloride], for which, in test [1], the EC50 is 2.8 nM.

As for `CC(=O)Nc1ccc(-c2nc(SCc3cccc(CCC(=O)NCCN(C)C)n3)nc(N)c2C#N)cc1.Cl` [Example 61, 3-{6-[4-(4-acetylaminophenyl)-6-amino-5-cyanopyrimidin-2-ylsulfanylmethyl]pyridin-2-yl}-N-(2-dimethylaminoethyl)-propionamide hydrochloride], the EC50 in test [1] stood at 3.4 nM. Moreover, the “ΔIOP (mmHg)” value was −0.5 ± 0.4 mmHg in test [2] (setting [3]); −4.2 ± 0.6 mmHg in test [2] (setting [4]); −4.5 ± 0.7 mmHg in test [2] (setting [5]); −4.8 ± 0.7 mmHg in test [2] (setting [6]); −4.4 ± 0.7 mmHg in test [2] (setting [7]); −1.2 ± 0.8 mmHg in test [2] (setting [8]).

On to `CC(=O)Nc1ccc(-c2nc(SCc3cccc(CCC(=O)N(C)CC(C)N(C)C)n3)nc(N)c2C#N)cc1.Cl` (stereo not shown) [Example 64, 3-{6-[4-(4-acetylaminophenyl)-6-amino-5-cyanopyrimidin-2-ylsulfanylmethyl]pyridin-2-yl}-N-(2-dimethylaminopropyl)-N-methylpropionamide hydrochloride], for which, in test [1], the EC50 is 4.3 nM. The “ΔIOP (mmHg)” value in test [2] (setting [3]) was −2.7 ± 0.7 mmHg; in test [2] (setting [4]), −4.9 ± 0.5 mmHg; in test [2] (setting [5]), −3.8 ± 0.8 mmHg; in test [2] (setting [6]), −3.2 ± 0.9 mmHg; in test [2] (setting [7]), −4.0 ± 0.7 mmHg; in test [2] (setting [8]) it was −1.8 ± 0.4 mmHg.

As for `CCN(CC)CCNC(=O)CCc1cccc(CSc2nc(N)c(C#N)c(-c3ccc(NC(C)=O)cc3)n2)n1.Cl` [Example 66, 3-{6-[4-(4-acetylaminophenyl)-6-amino-5-cyanopyrimidin-2-ylsulfanylmethyl]pyridin-2-yl}-N-(2-diethylaminoethyl)propionamide hydrochloride salt], the EC50 in test [1] was found to be 5.2 nM. Moreover, the “ΔIOP (mmHg)” value in test [2] (setting [3]) was −1.3 ± 0.9 mmHg; in test [2] (setting [4]), −4.0 ± 0.6 mmHg; in test [2] (setting [5]) it was −5.5 ± 0.7 mmHg; in test [2] (setting [6]) it was −5.0 ± 0.5 mmHg; in test [2] (setting [7]), −3.7 ± 0.5 mmHg; in test [2] (setting [8]), −1.8 ± 0.5 mmHg.

With `CCN(CC)C1CCN(C(=O)CCc2cccc(CSc3nc(N)c(C#N)c(-c4ccc(NC(C)=O)cc4)n3)n2)CC1` [Example 68, N-[4-(6-amino-5-cyano-2-{6-[3-(4-diethylaminopiperidin-1-yl)-3-oxopropyl]pyridin-2-yl-methylsulfanyl}pyrimidin-4-yl)phenyl]acetamide hydrochloride salt], in test [1], the concentration for a half-maximal effect (EC50) turned out to be 7.5 nM.

For the compound `CC(=O)Nc1ccc(-c2nc(SCc3cccc(CCC(=O)N4CCCCC4CO)n3)nc(N)c2C#N)cc1` (stereo not shown) [Example 70, N-[4-(6-amino-5-cyano-2-{6-[3-(2-hydroxymethylpiperidin-1-yl)-3-oxopropyl]pyridin-2-ylmethylsulfanyl}pyrimidin-4-yl)phenyl]acetamide hydrochloride], the concentration giving a half-maximal response (EC50) in test [1] turned out to be 8.8 nM.

`CC(=O)Nc1ccc(-c2nc(SCc3cccc(CCC(=O)N4CCNCC4)n3)nc(N)c2C#N)cc1` [Example 74, N-(4-{6-amino-5-cyano-2-[6-(3-oxo-3-piperazin-1-ylpropyl)pyridin-2-ylmethylsulfanyl]-pyrimidin-4-yl}phenyl)acetamide hydrochloride]: the half-maximal effective concentration (EC50) in test [1] is 2.5 nM.

As for `CCC(=O)CCc1cccc(CSc2nc(N)c(C#N)c(-c3ccc(NC(C)=O)cc3)n2)n1` [Example 82, N-(4-{6-amino-5-cyano-2-[6-(3-oxopentyl)pyridin-2-ylmethylsulfanyl]pyrimidin-4-yl}phenyl)acetamide], the EC50 in test [1] was found to be 8.2 nM.

As usually defined, the EC50 is the concentration that produces a half-maximal response.

(Values after patent US7989446B2, “4-amino 5-cyanopyrimidine derivatives” (Otsuka Pharmaceutical Co., Ltd., priority 2004, dated 2011).)
